Here are results for five compounds from patent US20120100990A1, “4 -AMINOPICOLINATES AND THEIR USE AS HERBICIDES” (SYNGENTA CROP PROTECTION LLC, priority 2009, published 2012).

Common to all, as to assay type: in vivo
Experiment [1] concerns Alopecurus myosuroides (ALOMY). Nature of the experiment: Post-emergence biological efficacy, glasshouse pot test. Conditions: 312 h, 1,000 g/ha, evaluated after 13 days, 100=total damage, 0=no damage, read-out: Percentage damage caused to weed species, post-emergence, ALOMY. Here is the method:
(§1) Seeds of Alopecurus myosuroides (ALOMY), Setaria faberi (SETFA), Echinochloa crus-galli (ECHCG), Solanum nigrum (SOLNI), Amaranthus retroflexus (AMARE) and Ipomea hederaceae (IPOHE) were sown in standard soil in pots. After cultivation for 8 days under controlled conditions in a glasshouse (at 24/16° C., day/night; 14 hours light; 65% humidity), the plants were sprayed with an aqueous spray solution derived from the formulation of the technical active ingredient in acetone/water (50:50) solution containing 0.5% Tween 20 (polyoxyethylene sorbitan monolaurate, CAS RN 9005-64-5) to give a final dose of 1000 or 250 g/ha of test compound. The test plants were then grown on under controlled conditions in a glasshouse (at 24/16° C., day/night; 14 hours light; 65% humidity) and watered twice daily. After 13 days the test was evaluated (100=total damage to plant; 0=no damage to plant).

In experiment [2] the test system is Solanum nigrum (SOLNI). The description is as above. The note with it: 312 h, 1,000 g/ha, evaluated after 13 days, 100=total damage, 0=no damage, read-out: Percentage damage caused to weed species, post-emergence, SOLNI. Here is the method: as §1
In experiment [3] the test system is Ipomea hederaceae (IPOHE). Described as above. Conditions: Ipomoea hederacea, 312 h, 1,000 g/ha, evaluated after 13 days, 100=total damage, 0=no damage, read-out: Percentage damage caused to weed species, post-emergence, IPOHE. Here is the method: as §1
For experiment [4], the system named is Setaria faberi (SETFA). The description is as above. The note with it: 312 h, 1,000 g/ha, evaluated after 13 days, 100=total damage, 0=no damage, read-out: Percentage damage caused to weed species, post-emergence, SETFA. Here is the method:
as §1

Experiment [5] has as its system Echinochloa crus-galli (ECHCG). The experiment is described as above. The note with it: 312 h, 1,000 g/ha, evaluated after 13 days, 100=total damage, 0=no damage, read-out: Percentage damage caused to weed species, post-emergence, ECHCG. Here is the method:
as §1

Experiment [6] has as its system Amaranthus retroflexus (AMARE). The experiment is described as above. The note with it: 312 h, 1,000 g/ha, evaluated after 13 days, 100=total damage, 0=no damage, read-out: Percentage damage caused to weed species, post-emergence, AMARE. Here is the method:
as §1

For experiment [7], the system named is Alopecurus myosuroides (ALOMY). The experiment is described as follows: Pre-emergence biological efficacy, glasshouse pot test. Conditions: 312 h, 1,000 g/ha, evaluated after 13 days, 100=total damage, 0=no damage, read-out: Percentage damage caused to weed species, pre-emergence, ALOMY. Here is the method: (§2) Seeds of Alopecurus myosuroides (ALOMY), Setaria faberi (SETFA), Echinochloa crus-galli (ECHCG), Solanum nigrum (SOLNI), Amaranthus retroflexus (AMARE) and Ipomea hederaceae (IPOHE) were sown in standard soil in pots. After cultivation for one day under controlled conditions in a glasshouse (at 24/16° C., day/night; 14 hours light; 65% humidity), the plants were sprayed with an aqueous spray solution derived from the formulation of the technical active ingredient in acetone/water (50:50) solution containing 0.5% Tween 20 (polyoxyethylene sorbitan monolaurate, CAS RN 9005-64-5) to give a final dose of 1000 or 250 g/ha of test compound. The test plants were then grown under controlled conditions in the glasshouse (at 24/16° C., day/night; 14 hours light; 65% humidity) and watered twice daily. After 13 days the test was evaluated (100=total damage to plant; 0=no damage to plant).

Experiment [8] relates to Solanum nigrum (SOLNI). The experiment is described as above. Conditions: 312 h, 1,000 g/ha, evaluated after 13 days, 100=total damage, 0=no damage, read-out: Percentage damage caused to weed species, pre-emergence, SOLNI. Here is the method: as §2
For experiment [9], the system named is Ipomea hederaceae (IPOHE). The description is as above. Conditions: Ipomoea hederacea, 312 h, 1,000 g/ha, evaluated after 13 days, 100=total damage, 0=no damage, read-out: Percentage damage caused to weed species, pre-emergence, IPOHE. Here is the method:
as §2

The subject of experiment [10] is Setaria faberi (SETFA). The description is as above. Conditions: 312 h, 1,000 g/ha, evaluated after 13 days, 100=total damage, 0=no damage, read-out: Percentage damage caused to weed species, pre-emergence, SETFA. Here is the method: as §2
In experiment [11] the test system is Echinochloa crus-galli (ECHCG). The description is as above. The note with it: 312 h, 1,000 g/ha, evaluated after 13 days, 100=total damage, 0=no damage, read-out: Percentage damage caused to weed species, pre-emergence, ECHCG. Here is the method:
as §2

The test system of experiment [12] is Amaranthus retroflexus (AMARE). The experiment is described as above. The note with it: 312 h, 1,000 g/ha, evaluated after 13 days, 100=total damage, 0=no damage, read-out: Percentage damage caused to weed species, pre-emergence, AMARE. Here is the method:
as §2

As for `COC(=O)c1nc(Cl)cc(NCC2CC2)c1Cl` [Compound 1-2, 4-Cyclopropylmethyl-amino-3,6-dichloro-pyridine-2-carboxylic acid methyl ester], the pest or weed control at 1000 g/ha in experiment [1] is 90%; in the experiment on Solanum nigrum (SOLNI) [2], 90%; in experiment [3], 80%; in the experiment on Setaria faberi (SETFA) [4], 90%; in experiment [5], 70%; in experiment [6], 100%. Further, the pest or weed control at 1000 g/ha in [7] was 80%; in the experiment on Solanum nigrum (SOLNI) [8], 100%; in experiment [9] it was 100%; in the experiment with Setaria faberi (SETFA) [10] it was 90%; in [11], 90%; in [12], 100%.
Consider `C=Cc1c(NCC2CCCCC2)cc(Cl)nc1C(=O)OC` [Compound 67-12, 6-Chloro-4-cyclohexylmeth-ylamino-3-ethenyl-pyridine-2-carboxylic acid methyl ester], for which the pest or weed control at 1000 g/ha in experiment [1] came to 10%; in the experiment on Solanum nigrum (SOLNI) [2] it was 80%; in experiment [3], 60%; with Setaria faberi (SETFA) [4], 20%; in experiment [5] it was 20%; in experiment [6], 90%. For the same compound, the pest or weed control at 1000 g/ha in [7] was 10%; in the experiment on Solanum nigrum (SOLNI) [8], 80%; in experiment [9], 60%; in the experiment with Setaria faberi (SETFA) [10], 0%; in experiment [11], 10%; in [12] it was 100%.
With `COC(=O)c1nc(Cl)cc(NCc2ccccc2[N+](=O)[O-])c1Cl` [Compound 15-2, 3,6-Dichloro-4-[(2-nitrophenylmethyl)-amino]-pyridine-2-carboxylic acid methyl ester], the pest or weed control at 1000 g/ha stood at 70% in [1]; 100% in the experiment with Solanum nigrum (SOLNI) [2]; 90% in experiment [3]; 90% in the experiment with Setaria faberi (SETFA) [4]; 70% in experiment [5]; 100% in experiment [6]. In addition, the pest or weed control at 1000 g/ha worked out at 90% in experiment [7]; 100% in the experiment on Solanum nigrum (SOLNI) [8]; 100% in [9]; 90% with Setaria faberi (SETFA) [10]; 80% in [11]; 100% in experiment [12].
For `C=Cc1c(NCc2ccccc2OC)cc(Cl)nc1C(=O)OC` [Compound 73-12, 6-Chloro-3-ethenyl-4-[(2-methoxyphenyl-methyl)-amino]-pyridine-2-carboxylic acid methyl ester], the pest or weed control at 1000 g/ha in experiment [1] was 20%; with Solanum nigrum (SOLNI) [2], 90%; in [3] it was 50%; in the experiment on Setaria faberi (SETFA) [4] it was 80%; in experiment [5], 20%; in experiment [6] it was 100%. Besides, the pest or weed control at 1000 g/ha in experiment [7] worked out at 70%; with Solanum nigrum (SOLNI) [8], 100%; in [9], 70%; with Setaria faberi (SETFA) [10], 80%; in [11] it was 20%; in experiment [12], 100%.
For `COC(=O)c1nc(Cl)cc(NCc2ccccc2C(F)(F)F)c1Cl` [Compound 74-2, 3,6-Dichloro-4-[(2-trifluoromethyl-phenylmethyl)-amino]-pyridine-2-carboxylic acid methyl ester], the pest or weed control at 1000 g/ha in experiment [1] amounted to 10%; in the experiment with Solanum nigrum (SOLNI) [2] it was 100%; in [3] it was 60%; with Setaria faberi (SETFA) [4], 0%; in experiment [5] it was 0%; in experiment [6], 100%. Besides, the pest or weed control at 1000 g/ha in experiment [7] came to 0%; in the experiment on Solanum nigrum (SOLNI) [8], 90%; in experiment [9], 70%; with Setaria faberi (SETFA) [10] it was 10%; in experiment [11] it was 0%; in experiment [12], 90%.
